Measured values taken from patent US6642221B1, “Vanadium compounds as anti-proliferative agents” (Parker Hughes Institute, priority 2000, dated 2003).
Read-outs that look alike come from different tables or passages of the source.

Key:
Zebrafish embryos [1] = experiment: Microinjection of Zebrafish embryos, cell division and development observed; format: in vivo, Zebrafish (Danio rerio)
From the text: VDC and VDacac were microinjected into Zebrafish embryos at room temperature, using a SMZ-10A stereo microscope (Nikon, Melville, N.Y.) and Transjector 5246 (Eppendorf, Westbury, N.Y.). Dechorionated Zebrafish embryos at the two-cell stage were transferred to a Petri dish filled with embryonic medium. The bottom of the Petri dish was covered with an agar layer, and the embryos were placed in grooves in agar, exactly as described in Westerfield, M., The Zebrafish Book, Supra. Microinjections were performed under visual control. At the 2-4 cell stage, approximately 2 nL of the compound dissolved in Hank's Balanced Salt Solution (HBSS) (Gibco, Rockville, Md.) with 10% DMSO was injected into the cytoplasm of one of the blastomeres through a constantly flowing micropipette with a splinted sharp tip of 2-3 μm diameter. Sham-treated control embryos were injected with 2 nL of HBSS containing 10% DMSO. After the treatment, the embryos were transferred to standard temperature, 28.5° C.
(§1) Observations of cell division and development of the Zebrafish embryos were carried out using a SMZ-10A stereo microscope, once every 30 minutes within the first 3 hours of incubation and at 6, 12 and 24 hours, as well. […] The stereo microscope was fitted with a specially designed transparent heating tray in order to keep embryos at ST during observations. Pictures of the embryos were taken with a H-III Photomicrographic System (Nikon) using Ektachrome 64X film (Kodak, Rochester, N.Y.).

[2] = test system: BT-20 breast cancer cells; experiment: Immunocytochemistry and confocal microscopic analysis of mitotic spindles; format: cell-based, human; details: BT-20 cells; for mitotic spindle morphology (α-tubulin, DNA): confocal microscopy
Procedure: (§2) BT-20 and MDA-MB-231 breast cancer cells (HTB-19, HTB-26 ATCC, Rockville, Md.) and U373 glioblastoma cells (HTB-17 ATCC Rockville, Md.) were grown in MEM media modified with 10% Fetal Bovine serum and 1% Penicillin/Streptomycin (Life Technologies, Rockville Md.). Cells were seeded onto sterile 22 mm square coverslips in 6-well plates. Cells on coverslips were kept in an incubator for 24 hours prior to treatment. The following day, VDC or VDacac was added from a stock solution made in DMSO to yield final concentration ranging from 3.9 to 500 μM (final DMSO concentration=0.025%). Cells were returned to a 37° C. incubator for 24 hours.
At the appropriate time point, coverslips containing BT-20 cells were fixed in −20° C. methanol for 15 minutes followed by 15 minutes incubation in phosphate buffered saline +0.1% Triton X-100 (PBS+Tx). Coverslips were next incubated with a primary antibody recognizing α-tubulin (Sigma, St.Louis Mo.) γ-tubulin (BAbCo, Berkeley Calif.), or NuMA (Calbiochem, SanDiego Calif.) for 40 minutes in a humidified chamber at 37° C. Coverslips were washed for 15 minutes in PBS-Tx followed by a 40 min incubation with a fluorescently labeled secondary antibody (Jackson Immunoresearch, West Grove Pa.). For double labeling the respective primary and secondary antibodies were combined. The coverslips were again rinsed in PBS-Tx and incubated with 5 μM Toto−3 (Molecular Probes, Eugene Oreg.) for 20 minutes to label the DNA. Coverslips were immediately inverted onto slides in Vectashield (Vector Labs, Burlingame, N.H.) to prevent photobleaching, sealed with nail polish and stored at 4° C. Bovine oocytes were processed for immunocytochemistry as described previously. Navara et al., Dev. Biol., 162: 29-40, 1994.
Slides were examined using a Bio-Rad MRC-1024 Laser Scanning Confocal Microscope mounted on a Nikon Eclipse E800 upright microscope with high numerical aperture objectives. Digital data was processed using Lasersharp (Bio-Rad, Hercules Calif.) and Photoshop (Adobe Systems Mountain View Calif.) software and printed on a Pictrography printer (Fuji Photo Elmsford, N.Y.).

[3] = test system: BT-20 breast cancer cells; experiment: MTT cytotoxicity assay; format: cell-based, human; details: BT20, 48 hours; read-out: IC50 (inhibition of cellular proliferation, MTT)
Procedure: as §2
(§3) The cytotoxicity of VDC and VDacac against the human tumor cell lines discussed above was assayed using the MTT (3-[4,5-dimethylthiazol-2-yl]-2,5-diphenyl tetrazolium bromide) assay (Boehringer Mannheim Corp., Indianapolis, Ind.). Briefly, exponentially growing tumor cells were seeded into a 96-well plate at a density of 2.5×10^4 cells/well and incubated for 36 hr at 37° C. prior to drug exposure. On the day of treatment, culture medium was carefully aspirated from the wells and replaced with fresh medium containing VDC or VDacac at concentrations ranging from 3.9 to 500 μM. Triplicate wells were used for each treatment. The cells were incubated with the vanadium compounds for 48 hours at 37° C. in a humidified 5% CO2 atmosphere. To each well, 10 μl of MTT (0.5 mg/ml final concentration) was added and the plates were incubated at 37° C. for 4 hours to allow MTT to form formazan crystals by reacting with metabolically active cells. The formazan crystals were solubilized overnight at 37° C. in a solution containing 10% SDS in 0.01 M HCl. The absorbence of each well was measured in a microplate reader (Labsystems, Helsinki, Finland) at 540 nm and a reference wavelength of 690 nm. To translate the OD540 values into the number of live cells in each well, the OD540 values were compared to those on standard OD540—versus—cell number curves generated for each cell line. The percent survival was calculated using the formula: % survival=Live cell number[test]/Live cell number [control]×100. The IC50 values were calculated by non-linear regression analysis using Graphpad Prism software version 2.0 (Graphpad Software, Inc., San Diego, Calif.).

U373 glioblastoma cells = experiment: MTT cytotoxicity assay; format: cell-based, human; details: U373, 48 hours; read-out: IC50 (inhibition of cellular proliferation, MTT)
Procedure: as §2, §3

[4] = test system: MDA-MB-231 breast cancer cells; experiment: MTT cytotoxicity assay; format: cell-based, human; details: MDA-MB-231, 48 hours; read-out: IC50 (inhibition of cellular proliferation, MTT)
Procedure: as §2, §3

Zebrafish embryos [5] = experiment: Zebrafish embryo model system: embryos exposed to compound in medium, cell division observed; format: in vivo, Zebrafish (Danio rerio); details: for inhibition of mitosis in treated embryos: 10 μM to 4 mM in medium; for effect on embryo development: 120 minutes; for effect on embryo cell division: thirty minutes after treatment
Procedure: Two-cell stage Zebrafish embryos were dechorionated with 1% trypsin-EDTA and treated with 1% DMSO at a temperature of 28.5° C. Zebrafish embryos were removed from their chorions by mild digestion in 1% Trypsin-EDTA (Sigma, St. Louis, Mo.) for 10 minutes at 28.5° C. (Standard temperature - ST), washed three times in “egg water” and twice in “embryonic medium” (EM) as described in Westerfield, M., The Zebrafish Book, Supra. The dechorionated two-cell stage cleaving eggs/embryos were transferred to the 24-well plastic cell culture plates (Costar, Cambridge, Mass.) filled with EM. Dechorionated embryos (10-12 per well) were exposed to VDC and VDacac at a constant ST for 0.5-24 hours. The final volume of the medium in each well was 500 μL. Both compounds were used at concentrations ranging from 10 μM to 4 mM. The compounds were dissolved in DMSO and then diluted serially with the incubation medium. The final concentration of DMSO in the wells was 1.2%. The sham-treated control embryos were incubated in EM in the presence of 1.2% DMSO.
as §1

pharyngonasal cancer = details: single assay, Sakurai et al. 1995; cited from earlier work
tumor cell = details: Kopf-Maier et al. 1983; cited from earlier work
[6] = test system: dynein ATPase activity found in sperm axonemes; details: 100 μM
Procedure: The effect of VDC on ATPase and GTPase activity was determined by isolating sperm axonemes after treatment of human sperm with 100 μM VDC. Sperm were pelleted by centrifugation 1900×g for 15 min, washed twice in cold PBS, resuspended in extraction buffer (1.0% Triton X-100, 0.1 M NaCl, 4 mM MgSO4, 1 mM CaCL2, 0.1 mM EDTA, 0.1 mM ATP, 7 mM 2-mercaptoethanol, and 5 mM imidazole buffer pH 7.0) and disrupted using a Dounce homogenizer. This homogenized suspension was centrifuged at 1500×g for 5 min to remove sperm heads and the resulting supernatant was recentrifuged at 12,000×g to recover the broken axonemes.
The axoneme pellet was resuspended in extraction buffer to remove residual membrane material, centrifuged at 1500×g for 5 min to remove residual sperm heads followed by centrifugation at 12,000×g to recover axonemes. The recovered axonemes were washed three times in extraction buffer lacking Triton X-100 and resuspended in solubilization buffer (0.6 M NaCl, 4 mM MgSO4, 1 mM CaCl2, 0.1 mM EDTA, 1 mM DTT, 7 mM 2-mercaptoetanol, 5 mM imidazole buffer pH 7.0) to solubilize the readily extractable motor protein dynein. The suspension was then centrifuged at 12,000×g. […] ATPase activity was measured using the EnzChek Phophate assay kit (Molecular Probes, Eugene Oreg.) according to manufacturers instructions.

[7] = test system: germinal vesicle stage bovine oocytes; details: 24 hours; for oocytes matured to metaphase of meiosis II (MII): control 93%
Procedure: Immature oocytes were recovered from bovine ovaries after slaughter by aspiration of 5 mm follicles. Only oocytes having a homogenous cytoplasm and surrounded by at least three layers of cumulus cells were selected. These were washed through three rinses of Hepes buffered Tyrode's media (114 mM NaCl, 3.2 mM KCl, 2 mM CaCl22H2O, […] MgCl26H2O, 25 mM NaHCO3, 0.4 mM NaH2PO4, 10 mM Na lactate, 100 I.U./ml Penicillin)(TL-Stock) modified with 10 mM Hepes, 1 mg/ml BSA, 0.2 mM pyruvate, and 25 μg/ml gentamicin (TL-Hepes; (16). Oocytes were matured for 24 hours in 50 μl drops of TC199 modified with 10% fetal bovine serum, 5 μg/ml FSH-p, 25μg/ml gentamicin, 1 μg/ml estrogen at 39° C. in 5% CO2 under mineral oil (17). After the oocytes were placed in the drops, 25 or 50 μM VDC was added in DMSO. Equal amounts of DMSO were added to control drops. Bovine oocytes were processed for immunocytochemistry after 24 hours.
Germinal vesicle stage bovine oocytes were matured in vitro in the presence of vehicle or VDC (25 μM or 50 μM). After 24 hours, these oocytes were fixed, labeled with anti-tubulin antibodies and the DNA dye TOTO−3. Oocytes were scored according to their stage in meoisis, microtubule organization and chromosome number.

CC(=O)C=C(C)[O-].O=S(=O)([O-])C(F)(F)F.[V+4].c1cc[cH-]c1.c1cc[cH-]c1 [VDacac, Vanadocene acetylacetonato monotriflate]
effect on embryonic development after microinjection (Zebrafish embryos [1]; 1 pmoL microinjected (lower)): formation of a blastocoel-like cavity in the blastoderm and prevented gastrulation | effect on embryonic development after microinjection (Zebrafish embryos [1]; 49 pmoL microinjected (higher)): deterioration of cell localization and development failure | mitotic spindle morphology (α-tubulin, DNA) [2]: aberrant monopolar mitotic structures | IC50 [3]: 26.9 µM | IC50 (U373 glioblastoma cells): 35.5 µM | IC50 [4]: 9.1 µM | inhibition of mitosis in treated embryos (Zebrafish embryos [5]): inhibited mitosis in a concentration-dependent fashion | effect on embryo development (Zebrafish embryos [5]; 0.4 mM): developed similar defects | effect on embryo cell division (Zebrafish embryos [5]; 0.6 mM): cell division defects followed by fusion of the embryonic cells

O.O.O=S(=O)([O-])[O-].[O]=[V+2].c1cnc2c(c1)ccc1cccnc12 [[VO(Phen)(H2O)2](SO4), (diaqua)(1,10-phenanthroline)oxovanadium (IV) sulfate]
activity against pharyngonasal cancer (pharyngonasal cancer): active agent against pharyngonasal cancer

Vanadocene dichloride [VDC]
effect on embryonic development after microinjection (Zebrafish embryos [1]; 0.64 pmol microinjected (lowest)): formation of a blastocoel-like cavity in the blastoderm and prevented gastrulation | effect on embryonic development after microinjection (Zebrafish embryos [1]; 32 pmol microinjected (higher)): cell division slow-down and total disarray of cell localization and development arrest | effect on embryonic development after microinjection (Zebrafish embryos [1]; 58 pmol microinjected (highest)): total cell fusion within 30 minutes of microinjection | NuMA localization [2]: only localized to one side of the mitotic spindle | γ-tubulin spindle pole labeling [2]: two foci of γ-tubulin on the same side of the chromosomes | mitotic spindle morphology (α-tubulin, DNA) [2]: aberrant monopolar mitotic structures | tumor cell growth (tumor cell): arrest tumor cell growth | inhibition of ATPase activity found in axonemes ([6]; four separate experiments): 12.2% | ATPase activity found in axonemes ([6]; control 0.08±0.01): 0.07±0.02 | IC50 [3]: 14.9 µM | IC50 (U373 glioblastoma cells): 18.6 µM | IC50 [4]: 11 µM | inhibition of mitosis in treated embryos (Zebrafish embryos [5]): inhibited mitosis in a concentration-dependent fashion | effect on embryo development (Zebrafish embryos [5]; 0.76 mM): developed abnormal blastulae | effect on embryo cell division (Zebrafish embryos [5]; 1.9 mM): cell division defects followed by fusion of the embryonic cells | oocytes matured to metaphase of meiosis II (MII) ([7]; 25 μM): 16.2% | oocytes matured to metaphase of meiosis II (MII) ([7]; 50 μM): 10.0% | oocytes with abnormal meiotic spindles ([7]; 25 or 50 μM, control 4%): ≥ 50%
